According to ChEMBL document CHEMBL5653631, “A Potent and Selective ULK1 Inhibitor Suppresses Autophagy and Sensitizes Cancer Cells to Nutrient Stress” (iScience, 2018):
Values belong to the molecule of their own block, whether it stands above or below them.

Assays:
Homo sapiens = species on record: Homo sapiens; experiment: Inhibition of human recombinant KHS1 at 500 nM in presence of ATP by radiometric assay relative to control
[1] = target: T1, Serine/threonine-protein kinase 3 (Homo sapiens) (UniProt Q13188); experiment: Inhibition of human recombinant MST2 at 500 nM in presence of ATP by radiometric assay relative to control
T1 sequence (whole entry): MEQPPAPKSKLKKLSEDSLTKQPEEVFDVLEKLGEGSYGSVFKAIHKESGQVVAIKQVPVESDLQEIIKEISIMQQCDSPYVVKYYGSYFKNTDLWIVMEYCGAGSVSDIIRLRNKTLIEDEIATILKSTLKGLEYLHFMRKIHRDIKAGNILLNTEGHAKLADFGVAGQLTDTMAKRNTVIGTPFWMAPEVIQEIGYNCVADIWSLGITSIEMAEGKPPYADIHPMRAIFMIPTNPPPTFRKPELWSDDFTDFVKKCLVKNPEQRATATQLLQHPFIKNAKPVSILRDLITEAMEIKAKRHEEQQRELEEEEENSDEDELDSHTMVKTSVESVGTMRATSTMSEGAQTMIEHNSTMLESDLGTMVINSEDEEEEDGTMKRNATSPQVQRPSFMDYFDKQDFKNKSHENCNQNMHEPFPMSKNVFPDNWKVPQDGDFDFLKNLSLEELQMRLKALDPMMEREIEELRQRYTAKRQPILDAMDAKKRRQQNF

[2] = target: Serine/threonine-protein kinase N2 (Homo sapiens) (UniProt Q16513); experiment: Inhibition of human recombinant PKN2 at 15 nM related to control ULK1
Chain of Serine/threonine-protein kinase N2 (Homo sapiens) (Q16513 whole entry, looked up): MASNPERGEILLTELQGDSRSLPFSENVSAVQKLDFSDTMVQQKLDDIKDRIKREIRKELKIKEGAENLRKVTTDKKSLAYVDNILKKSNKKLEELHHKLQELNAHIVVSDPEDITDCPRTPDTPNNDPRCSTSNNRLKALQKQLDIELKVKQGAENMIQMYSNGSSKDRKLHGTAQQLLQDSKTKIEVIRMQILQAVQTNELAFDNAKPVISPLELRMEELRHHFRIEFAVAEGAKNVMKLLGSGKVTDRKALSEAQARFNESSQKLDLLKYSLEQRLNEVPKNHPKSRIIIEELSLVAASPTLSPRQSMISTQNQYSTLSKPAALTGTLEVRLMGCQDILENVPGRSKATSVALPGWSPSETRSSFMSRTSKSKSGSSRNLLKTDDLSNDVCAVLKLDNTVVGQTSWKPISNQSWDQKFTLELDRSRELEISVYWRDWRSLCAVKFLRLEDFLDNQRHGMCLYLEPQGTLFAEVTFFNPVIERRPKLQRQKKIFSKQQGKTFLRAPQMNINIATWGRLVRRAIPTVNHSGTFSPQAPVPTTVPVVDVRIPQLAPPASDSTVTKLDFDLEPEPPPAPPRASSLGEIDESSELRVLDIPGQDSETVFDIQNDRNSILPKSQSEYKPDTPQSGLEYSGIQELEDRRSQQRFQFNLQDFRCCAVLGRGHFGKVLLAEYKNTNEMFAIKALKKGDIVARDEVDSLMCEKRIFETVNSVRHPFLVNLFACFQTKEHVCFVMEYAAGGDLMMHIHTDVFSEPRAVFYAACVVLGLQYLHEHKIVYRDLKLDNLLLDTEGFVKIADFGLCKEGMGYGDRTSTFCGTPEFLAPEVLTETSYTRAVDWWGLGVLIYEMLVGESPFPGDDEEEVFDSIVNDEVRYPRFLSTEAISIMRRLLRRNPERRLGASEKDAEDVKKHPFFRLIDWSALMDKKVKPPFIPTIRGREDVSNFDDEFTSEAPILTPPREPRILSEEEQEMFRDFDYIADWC

[3] = target: Mitogen-activated protein kinase kinase kinase kinase 1 (Homo sapiens) (UniProt Q92918); experiment: Inhibition of human recombinant HPK1 at 15 nM related to control ULK1
[4] = target: Leukocyte tyrosine kinase receptor (Homo sapiens) (UniProt P29376); experiment: Inhibition of human recombinant LTK at 15 nM related to control ULK1
[5] = target: Serine/threonine-protein kinase MRCK beta (Homo sapiens) (UniProt Q9Y5S2); experiment: Inhibition of human recombinant MRCKb at 15 nM in presence of ATP by radiometric assay relative to control
Chain of Serine/threonine-protein kinase MRCK beta (Homo sapiens) (Q9Y5S2 whole entry): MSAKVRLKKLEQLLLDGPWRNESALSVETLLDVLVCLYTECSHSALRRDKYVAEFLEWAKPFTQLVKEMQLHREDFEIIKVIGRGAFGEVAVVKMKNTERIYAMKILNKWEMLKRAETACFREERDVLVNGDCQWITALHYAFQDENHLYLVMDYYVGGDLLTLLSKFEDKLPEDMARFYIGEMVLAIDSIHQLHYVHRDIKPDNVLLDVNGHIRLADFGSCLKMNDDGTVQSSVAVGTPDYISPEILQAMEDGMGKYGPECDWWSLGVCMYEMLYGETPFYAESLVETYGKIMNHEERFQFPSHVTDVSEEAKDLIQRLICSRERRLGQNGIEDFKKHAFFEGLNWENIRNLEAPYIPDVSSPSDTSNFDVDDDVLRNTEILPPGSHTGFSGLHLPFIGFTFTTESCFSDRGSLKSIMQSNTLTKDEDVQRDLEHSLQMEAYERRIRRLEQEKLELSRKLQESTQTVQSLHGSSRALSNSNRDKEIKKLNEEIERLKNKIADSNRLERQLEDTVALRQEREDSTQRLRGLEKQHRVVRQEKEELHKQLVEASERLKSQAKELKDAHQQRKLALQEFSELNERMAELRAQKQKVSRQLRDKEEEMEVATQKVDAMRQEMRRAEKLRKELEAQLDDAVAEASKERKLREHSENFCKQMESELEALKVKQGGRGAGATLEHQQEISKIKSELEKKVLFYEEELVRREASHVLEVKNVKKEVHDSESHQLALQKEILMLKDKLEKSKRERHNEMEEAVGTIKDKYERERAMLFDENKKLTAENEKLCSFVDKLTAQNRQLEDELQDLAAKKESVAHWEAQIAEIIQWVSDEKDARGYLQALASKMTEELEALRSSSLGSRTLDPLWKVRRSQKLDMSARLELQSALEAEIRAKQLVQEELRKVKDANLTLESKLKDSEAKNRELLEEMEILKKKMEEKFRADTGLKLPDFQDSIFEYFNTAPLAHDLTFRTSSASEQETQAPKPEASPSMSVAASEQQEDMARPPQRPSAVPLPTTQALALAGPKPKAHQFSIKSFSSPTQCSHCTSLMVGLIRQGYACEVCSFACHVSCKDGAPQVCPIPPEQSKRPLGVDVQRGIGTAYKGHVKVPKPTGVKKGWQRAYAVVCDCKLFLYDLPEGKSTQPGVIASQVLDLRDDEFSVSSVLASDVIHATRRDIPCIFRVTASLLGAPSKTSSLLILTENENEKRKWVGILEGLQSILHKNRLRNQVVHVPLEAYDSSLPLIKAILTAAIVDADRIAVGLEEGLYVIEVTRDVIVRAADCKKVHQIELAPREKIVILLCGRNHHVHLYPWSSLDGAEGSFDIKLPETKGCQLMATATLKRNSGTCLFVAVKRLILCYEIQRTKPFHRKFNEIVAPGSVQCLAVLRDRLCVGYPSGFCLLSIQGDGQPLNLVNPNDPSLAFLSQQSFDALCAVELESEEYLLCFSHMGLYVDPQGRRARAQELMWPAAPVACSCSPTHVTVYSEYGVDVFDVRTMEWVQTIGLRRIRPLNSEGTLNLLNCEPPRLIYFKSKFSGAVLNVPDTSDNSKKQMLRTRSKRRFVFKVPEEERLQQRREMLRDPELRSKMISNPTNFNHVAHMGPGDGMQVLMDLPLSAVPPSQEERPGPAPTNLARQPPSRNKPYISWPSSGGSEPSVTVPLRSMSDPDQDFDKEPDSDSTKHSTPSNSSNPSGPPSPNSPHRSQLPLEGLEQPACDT

[6] = target: T2, Tyrosine-protein kinase receptor TYRO3 (Homo sapiens) (UniProt Q06418); experiment: Inhibition of human recombinant TYRO3 at 15 nM in presence of ATP by radiometric assay relative to control
T2 sequence (whole entry): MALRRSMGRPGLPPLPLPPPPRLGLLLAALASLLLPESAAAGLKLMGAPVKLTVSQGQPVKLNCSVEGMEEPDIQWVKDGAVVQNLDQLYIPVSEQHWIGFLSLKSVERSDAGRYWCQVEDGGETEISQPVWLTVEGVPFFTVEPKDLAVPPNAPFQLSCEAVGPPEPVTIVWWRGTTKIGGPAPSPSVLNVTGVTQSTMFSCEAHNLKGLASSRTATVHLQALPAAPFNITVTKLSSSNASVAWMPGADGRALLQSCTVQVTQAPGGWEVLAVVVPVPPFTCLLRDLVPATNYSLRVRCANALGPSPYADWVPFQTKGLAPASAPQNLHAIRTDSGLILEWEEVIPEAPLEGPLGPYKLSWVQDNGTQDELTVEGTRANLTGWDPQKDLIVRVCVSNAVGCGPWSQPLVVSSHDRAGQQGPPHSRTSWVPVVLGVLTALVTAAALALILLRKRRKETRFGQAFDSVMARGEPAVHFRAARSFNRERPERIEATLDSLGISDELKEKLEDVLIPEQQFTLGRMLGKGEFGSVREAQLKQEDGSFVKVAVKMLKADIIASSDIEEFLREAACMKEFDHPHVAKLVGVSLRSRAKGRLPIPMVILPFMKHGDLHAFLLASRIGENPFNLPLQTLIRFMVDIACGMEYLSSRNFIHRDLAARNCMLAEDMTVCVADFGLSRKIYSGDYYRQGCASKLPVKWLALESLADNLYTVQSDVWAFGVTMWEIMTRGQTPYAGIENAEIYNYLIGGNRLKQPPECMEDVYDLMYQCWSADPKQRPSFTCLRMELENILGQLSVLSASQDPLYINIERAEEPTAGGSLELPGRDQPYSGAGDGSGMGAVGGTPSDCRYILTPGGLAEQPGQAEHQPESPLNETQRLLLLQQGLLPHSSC

[7] = target: MAP kinase-activated protein kinase 2 (Homo sapiens) (UniProt P49137); experiment: Inhibition of human recombinant MAPKAPK2 at 40 nM in presence of ATP by radiometric assay relative to control
[8] = target: Cell division cycle 7-related protein kinase (Homo sapiens) (UniProt O00311); experiment: Inhibition of human recombinant CDC7 at 40 nM in presence of ATP by radiometric assay relative to control
[9] = target: Tyrosine-protein kinase HCK (Homo sapiens) (UniProt P08631); experiment: Inhibition of human recombinant HCK at 40 nM in presence of ATP by radiometric assay relative to control
Chain of Tyrosine-protein kinase HCK (Homo sapiens) (P08631 2-526 limits assumed): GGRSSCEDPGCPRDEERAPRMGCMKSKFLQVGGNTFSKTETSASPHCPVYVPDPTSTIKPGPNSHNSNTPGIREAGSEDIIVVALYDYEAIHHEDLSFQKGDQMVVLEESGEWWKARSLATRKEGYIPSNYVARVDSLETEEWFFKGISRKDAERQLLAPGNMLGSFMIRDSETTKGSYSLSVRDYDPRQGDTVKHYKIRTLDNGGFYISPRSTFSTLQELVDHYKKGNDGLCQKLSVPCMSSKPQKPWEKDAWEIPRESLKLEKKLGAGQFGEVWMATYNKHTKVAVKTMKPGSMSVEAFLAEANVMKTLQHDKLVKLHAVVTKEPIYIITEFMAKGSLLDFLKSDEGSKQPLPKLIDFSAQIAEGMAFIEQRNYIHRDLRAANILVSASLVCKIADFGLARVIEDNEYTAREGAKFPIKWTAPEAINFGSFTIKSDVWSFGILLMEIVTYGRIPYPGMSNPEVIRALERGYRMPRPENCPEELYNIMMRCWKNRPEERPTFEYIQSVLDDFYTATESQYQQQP

[10] = target: Protein kinase C iota type (Homo sapiens) (UniProt P41743); experiment: Inhibition of human recombinant PKCi at 40 nM related to control ULK1
Chain of Protein kinase C iota type (Homo sapiens) (P41743 whole entry, looked up): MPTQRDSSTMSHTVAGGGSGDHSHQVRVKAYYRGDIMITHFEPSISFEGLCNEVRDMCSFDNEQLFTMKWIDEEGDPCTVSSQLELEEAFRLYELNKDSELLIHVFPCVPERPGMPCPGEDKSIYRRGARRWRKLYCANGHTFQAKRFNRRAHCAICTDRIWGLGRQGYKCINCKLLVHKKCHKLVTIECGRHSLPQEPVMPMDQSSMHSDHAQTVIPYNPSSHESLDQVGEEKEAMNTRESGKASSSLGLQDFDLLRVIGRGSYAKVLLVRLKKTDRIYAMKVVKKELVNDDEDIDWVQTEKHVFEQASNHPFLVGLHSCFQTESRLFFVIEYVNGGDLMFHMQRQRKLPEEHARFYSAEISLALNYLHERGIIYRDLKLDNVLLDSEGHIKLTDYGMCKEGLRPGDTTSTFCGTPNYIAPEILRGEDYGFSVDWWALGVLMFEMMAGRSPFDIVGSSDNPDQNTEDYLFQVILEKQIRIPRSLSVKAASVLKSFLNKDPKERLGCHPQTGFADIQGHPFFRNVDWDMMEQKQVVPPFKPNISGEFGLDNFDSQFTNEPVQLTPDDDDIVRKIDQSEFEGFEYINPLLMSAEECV

[11] = target: T3, MAPK/MAK/MRK overlapping kinase (Homo sapiens) (UniProt Q9UQ07); experiment: Inhibition of human recombinant MOK at 40 nM in presence of ATP by radiometric assay relative to control
T3 sequence (whole entry): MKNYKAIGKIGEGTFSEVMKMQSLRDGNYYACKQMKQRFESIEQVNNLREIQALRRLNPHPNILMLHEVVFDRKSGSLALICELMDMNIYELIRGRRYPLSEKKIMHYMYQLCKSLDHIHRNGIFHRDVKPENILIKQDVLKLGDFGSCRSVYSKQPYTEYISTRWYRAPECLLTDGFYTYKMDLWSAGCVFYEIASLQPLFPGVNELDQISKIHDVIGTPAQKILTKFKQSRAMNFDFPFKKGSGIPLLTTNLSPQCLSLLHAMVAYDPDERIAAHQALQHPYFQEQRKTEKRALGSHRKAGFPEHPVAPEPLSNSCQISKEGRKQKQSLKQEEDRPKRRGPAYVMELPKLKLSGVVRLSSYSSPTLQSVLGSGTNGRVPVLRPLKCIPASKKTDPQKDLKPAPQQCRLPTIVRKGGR

[12] = target: Calcium/calmodulin-dependent protein kinase type 1G (Homo sapiens) (UniProt Q96NX5); experiment: Inhibition of human recombinant CaMK1g at 40 nM related to control ULK1
[13] = target: Serine/threonine-protein kinase SIK2 (Homo sapiens) (UniProt Q9H0K1); experiment: Inhibition of human recombinant QIK at 40 nM related to control ULK1
Chain of Serine/threonine-protein kinase SIK2 (Homo sapiens) (Q9H0K1 whole entry, looked up): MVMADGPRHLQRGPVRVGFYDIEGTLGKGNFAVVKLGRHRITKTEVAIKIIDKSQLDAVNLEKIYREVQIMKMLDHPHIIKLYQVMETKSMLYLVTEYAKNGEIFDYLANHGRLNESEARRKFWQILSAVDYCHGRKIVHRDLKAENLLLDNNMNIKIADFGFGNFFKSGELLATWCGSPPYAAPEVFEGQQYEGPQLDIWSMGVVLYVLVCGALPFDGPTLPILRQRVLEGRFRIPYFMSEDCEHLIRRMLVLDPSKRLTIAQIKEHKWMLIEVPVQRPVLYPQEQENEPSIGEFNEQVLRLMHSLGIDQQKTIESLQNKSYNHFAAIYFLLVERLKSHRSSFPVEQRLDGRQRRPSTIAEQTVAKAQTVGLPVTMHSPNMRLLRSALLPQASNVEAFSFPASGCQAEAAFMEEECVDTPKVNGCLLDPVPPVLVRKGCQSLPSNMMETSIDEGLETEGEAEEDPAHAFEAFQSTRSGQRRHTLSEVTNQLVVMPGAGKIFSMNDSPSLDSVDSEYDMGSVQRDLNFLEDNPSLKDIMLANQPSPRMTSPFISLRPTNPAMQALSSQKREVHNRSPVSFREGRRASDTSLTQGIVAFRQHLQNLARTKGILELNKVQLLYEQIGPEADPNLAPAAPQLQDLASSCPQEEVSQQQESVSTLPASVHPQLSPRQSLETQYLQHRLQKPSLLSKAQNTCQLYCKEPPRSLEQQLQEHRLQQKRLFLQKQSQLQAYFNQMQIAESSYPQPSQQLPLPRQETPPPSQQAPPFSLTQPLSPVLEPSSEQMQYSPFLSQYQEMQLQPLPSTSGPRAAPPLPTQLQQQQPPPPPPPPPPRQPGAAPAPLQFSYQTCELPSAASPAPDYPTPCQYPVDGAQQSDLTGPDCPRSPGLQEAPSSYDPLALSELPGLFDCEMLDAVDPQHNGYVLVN

inhibition (Homo sapiens): 11% | inhibition [1]: 0%
Structure (SMILES): CNC(=O)c1ccccc1Oc1nc(Nc2cc(OC)c(OC)c(OC)c2)ncc1Br

fold change (FC) [2]: 0 | fold change (FC) [3]: 0 | fold change (FC) [4]: 0 | inhibition [5]: 6% | inhibition [6]: 0%
Structure (SMILES): CC(C)[C@H](NC(=O)c1cc(-c2cnn3cc(-c4ccc(OCCN5CCCCC5)cc4)cnc23)cs1)C(F)(F)F

inhibition [7]: 0% | inhibition [8]: 39% | inhibition [9]: 0% | fold change (FC) [10]: 0 | inhibition [11]: 0% | fold change (FC) [12]: 0 | fold change (FC) [13]: 0.74
Structure (SMILES): O=C(N[C@@H](C1CC1)C(F)(F)F)c1cc(-c2cnn3cc(-c4ccc(F)cc4)cnc23)cs1
